# Source: patent US20220135538A1, “P300/CBP HAT INHIBITORS AND METHODS FOR THEIR USE” (Constellation Pharmaceuticals, Inc., priority 2019, published 2022)
# Target: T1, p300 HAT domain (residues 1287-1666) (Homo sapiens, UniProt Q09472)
# T1 construct: The p300 HAT domain (residues 1287-1666) was expressed; His tag (N); made in house; host or cells: Escherichia coli
# T1 sequence (Q09472 1287-1666): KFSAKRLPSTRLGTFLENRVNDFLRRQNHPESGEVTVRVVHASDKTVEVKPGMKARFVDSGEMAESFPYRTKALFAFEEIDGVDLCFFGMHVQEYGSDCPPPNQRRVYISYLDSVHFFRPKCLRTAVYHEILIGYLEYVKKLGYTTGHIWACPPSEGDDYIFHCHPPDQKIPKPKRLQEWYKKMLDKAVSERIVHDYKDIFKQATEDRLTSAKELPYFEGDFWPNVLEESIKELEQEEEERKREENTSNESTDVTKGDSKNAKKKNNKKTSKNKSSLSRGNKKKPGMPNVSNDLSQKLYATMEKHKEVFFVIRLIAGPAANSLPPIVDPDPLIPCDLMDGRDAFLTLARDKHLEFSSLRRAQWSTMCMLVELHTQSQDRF
# Test: P300 HAT SPA assay (scintillation proximity, acetylation of biotinylated H3(1-21) peptide)
# Type: biochemical
# Settings: 6 nM p300-HAT domain; average of at least 2 replicate titrations
# Procedure: The activity of the compounds described herein as p300/CBP HAT inhibitors may be readily determined using a scintillation proximity assay (SPA) methodology (Udenfriend, S.; Gerber, L.; Nelson, N. Scintillation Proximity Assay: A Sensitive and Continuous Isotopic Method for Monitoring Ligand/Receptor and Antigen/Antibody Interactions. Anal. Biochem. 1987, 161, 494-500).
# In a typical experiment the p300 HAT inhibitory activity of the compounds described herein was determined in accordance with the following experimental method.
# The p300 HAT domain (residues 1287-1666) was expressed and purified with an N-terminal His tag from Escherichia coli cells. The expressed protein was purified by Ni2+affinity, followed by anion exchange chromatography. Appropriate fractions were pooled and buffer exchanged into 20 mM Hepes pH 7.5, 150 mM NaCl, and 1 mM TCEP.
# Compounds of interest solubilized in DMSO were stamped in a Greiner black 384-well plate in a 10-point duplicate dose response using an Echo 550 (Labcyte). p300-HAT domain purified in-house (aa 1287-1666) was diluted to 6 nM in reaction buffer (50 mM Tris pH 8.0, 100 mM NaCl, 1 mM DTT, 0.069 mM Brij-35, 0.1 mM EDTA, 0.1 mg/mL BSA), combined with 4.14 μM AcCoA (Sigma-Aldrich) and 0.46 μM ^3H-AcCoA (PerkinElmer), and 12.5 μL added to each well and incubated for 30 min at RT. Reactions were initiated with 12.5 μL 2 μM biotinylated H3(1-21) peptide (New England Peptide) and run for 1 hr at RT, then quenched with 20 μL stop solution (200 mM Tris pH 8.0, 200 mM EDTA, 2M NaCl, 160 μM anacardic acid). 35 μL of the reaction volume was transferred to a 384-well streptavidin FlashPlate (PerkinElmer) using a Bravo liquid handler (Velocity 11) and incubated for 1.5 hr at RT. Plates were aspirated, washed with 95 μL wash buffer (15 mM Tris pH 8.5, 0.069 μM Brij-35), aspirated, sealed, and scintillation counts read on a Topcount (PerkinElmer). Data were analyzed in Genedata to determine inhibitor IC50 values.
row,SMILES,IC50
1,"CN1CC(Oc2ccc(NC(=O)C(NCCc3ccc(Cl)cc3)c3ccccc3)nc2)CN(C)C1=O (single isomer, unassigned) [3 Isomer 1]",> 2000 nM
2,"CC(CNC(C(=O)Nc1ccc(OC2CCN(C(=O)C3CC3)CC2)cn1)c1ccccc1)c1ccc(C#N)cc1 (single isomer, unassigned) [20 Isomer 1]",> 2000 nM
3,"CC(=O)N1CC(Oc2ccc(NC(=O)C(NCC(C)c3ccc(C#N)cc3)c3cnn(C)c3)nc2)C1 (single isomer, unassigned) [24 Isomer 3]",> 2000 nM
4,"CC(=O)N1CC(Oc2ccc(NC(=O)C(NC[C@@H](C)c3ccc(C#N)cc3)c3ccccc3)nc2)C1 (single isomer, unassigned) [2 Isomer 2]",> 2000 nM
5,"CC(=O)N1CCC[C@@H](Oc2ccc(NC(=O)C(NCCc3ccc(C#N)cc3)c3ccccc3)nc2)C1 (single isomer, unassigned) [16 Isomer 2]",> 2000 nM
6,"CC(CNC(C(=O)Nc1ccc(Oc2cnn(C)c2)cn1)c1ccccc1)c1ccc(C#N)cc1 (single isomer, unassigned) [17 Isomer 3]",> 2000 nM
7,"N#Cc1ccc(CCNC(C(=O)Nc2ccc(OCCN3CCOC3=O)cn2)c2ccccc2)cc1 (single isomer, unassigned) [19 Isomer 2]",> 2000 nM
8,"CC(Oc1ccc(NC(=O)C(NCCc2ccc(C#N)cc2)c2ccccc2)nc1)c1cnn(C)c1 (single isomer, unassigned) [18 Isomer 3]",> 2000 nM
9,"CN1CC(Oc2ccc(NC(=O)C(NCCc3ccc(Cl)cc3)c3ccccc3)nc2)CCC1=O (single isomer, unassigned) [10 Isomer 2]",> 2000 nM
10,"CN1CCC(Oc2ccc(NC(=O)C(NCCc3ccc(Cl)cc3)c3ccccc3)nc2)CC1 (single isomer, unassigned) [11 Isomer 2]",> 2000 nM
11,"CN1CCC(Oc2ccc(NC(=O)C(NCCc3ccc(C#N)cc3)c3ccccc3)nc2)C1=O (single isomer, unassigned) [12 Isomer 3]",> 2000 nM
12,"CC(=O)N1CCC[C@H](Oc2ccc(NC(=O)C(NCCc3ccc(C#N)cc3)c3ccccc3)nc2)C1 (single isomer, unassigned) [15 Isomer 2]",> 2000 nM
13,"CC(CNC(C(=O)Nc1ccc(Oc2cnn(C)c2)cn1)c1ccccc1)c1ccc(C#N)cc1 (single isomer, unassigned) [17 Isomer 2]",> 2000 nM
14,"Cc1cnc(Oc2ccc(NC(=O)C(NCCc3ccc(C#N)cc3)c3ccccc3)nc2)nc1 (single isomer, unassigned) [22 Isomer 2]",1390 nM
15,"CC(=O)N1CC[C@H](Oc2ccc(NC(=O)C(NCCc3ccc(C#N)cc3)c3ccccc3)nc2)C1 (single isomer, unassigned) [13 Isomer 1]",> 2000 nM
16,"CC(Oc1ccc(NC(=O)C(NCCc2ccc(C#N)cc2)c2ccccc2)nc1)c1cnn(C)c1 (single isomer, unassigned) [18 Isomer 4]",> 2000 nM
17,"CC(CNC(C(=O)Nc1ccc(Oc2cnn(C)c2)cn1)c1ccccc1)c1ccc(C#N)cc1 (single isomer, unassigned) [17 Isomer 4]",> 2000 nM
18,"N#Cc1ccc(CCNC(C(=O)Nc2ccc(O[C@@H]3CCOC3)cn2)c2ccccc2)cc1 (single isomer, unassigned) [4 Isomer 2]",> 2000 nM
19,"CC(CNC(C(=O)Nc1ccc(OC2CN(C(=O)C3CC3)C2)cn1)c1ccccc1)c1ccc(C#N)cc1 (single isomer, unassigned) [21 Isomer 2]",> 2000 nM
20,"CC(=O)N1CC(Oc2ccc(NC(=O)C(NCC(C)c3ccc(C#N)cc3)c3cnn(C)c3)nc2)C1 (single isomer, unassigned) [24 Isomer 4]",> 2000 nM
21,"Cn1cc(COc2ccc(NC(=O)C(NCCc3ccc(Cl)cc3)c3ccccc3)nc2)cn1 (single isomer, unassigned) [8 Isomer 1]",1360 nM
22,"CC(CNC(C(=O)Nc1ccc(OC2CN(C(=O)OC(C)(C)C)C2)cn1)c1ccccc1)c1ccc(C#N)cc1 (single isomer, unassigned) [25 Isomer 1]",> 1000 nM
23,"Cc1cnc(Oc2ccc(NC(=O)C(NCCc3ccc(C#N)cc3)c3ccccc3)nc2)nc1 (single isomer, unassigned) [22 Isomer 1]",> 2000 nM
24,"CN1CCC(Oc2ccc(NC(=O)C(NCCc3ccc(C#N)cc3)c3ccccc3)nc2)C1=O (single isomer, unassigned) [12 Isomer 4]",> 2000 nM

# Further molecules by falling IC50, results first:
row,IC50,SMILES
1,1140 nM,"N#Cc1ccc(CCNC(C(=O)Nc2ccc(OC3COC3)cn2)c2ccccc2)cc1 (single isomer, unassigned) [6 Isomer 2]"
2,965 nM,"CC(=O)N1CC(Oc2ccc(NC(=O)C(NCC(C)c3ccc(C#N)cc3)c3cccc(F)c3)nc2)C1 (single isomer, unassigned) [23 Isomer 2]"
3,209 nM,"CC(Oc1ccc(NC(=O)C(NCCc2ccc(C#N)cc2)c2ccccc2)nc1)c1cnn(C)c1 (single isomer, unassigned) [18 Isomer 2]"
4,164 nM,"CC(=O)N1CCC[C@@H](Oc2ccc(NC(=O)C(NCCc3ccc(C#N)cc3)c3ccccc3)nc2)C1 (single isomer, unassigned) [16 Isomer 1]"
5,117 nM,"CN1CC(Oc2ccc(NC(=O)C(NCCc3ccc(Cl)cc3)c3ccccc3)nc2)CN(C)C1=O (single isomer, unassigned) [3 Isomer 2]"
6,115 nM,"CC(CNC(C(=O)Nc1ccc(OC2CN(C(=O)OC(C)(C)C)C2)cn1)c1ccccc1)c1ccc(C#N)cc1 (single isomer, unassigned) [25 Isomer 2]"
7,98.5 nM,"O=C(Nc1ccc(OCCn2cccn2)cn1)C(NCCc1ccc(Cl)cc1)c1ccccc1 (single isomer, unassigned) [7 Isomer 2]"
8,91.4 nM,"N#Cc1ccc(CCNC(C(=O)Nc2ccc(O[C@@H]3CCOC3)cn2)c2ccccc2)cc1 (single isomer, unassigned) [4 Isomer 1]"
9,65 nM,"CN1CCC(Oc2ccc(NC(=O)C(NCCc3ccc(C#N)cc3)c3ccccc3)nc2)C1=O (single isomer, unassigned) [12 Isomer 1]"
10,63 nM,"CN1CCC(Oc2ccc(NC(=O)C(NCCc3ccc(C#N)cc3)c3ccccc3)nc2)C1=O (single isomer, unassigned) [12 Isomer 2]"
11,59.9 nM,"CC(=O)N1CC[C@H](Oc2ccc(NC(=O)C(NCCc3ccc(C#N)cc3)c3ccccc3)nc2)C1 (single isomer, unassigned) [13 Isomer 2]"
12,56.6 nM,"N#Cc1ccc(CCNC(C(=O)Nc2ccc(OCCN3CCOC3=O)cn2)c2ccccc2)cc1 (single isomer, unassigned) [19 Isomer 1]"
13,45.4 nM,"CN1CC(Oc2ccc(NC(=O)C(NCCc3ccc(Cl)cc3)c3ccccc3)nc2)CCC1=O (single isomer, unassigned) [10 Isomer 3]"
14,39.9 nM,"N#Cc1ccc(CCNC(C(=O)Nc2ccc(OC3COC3)cn2)c2ccccc2)cc1 (single isomer, unassigned) [6 Isomer 1]"
15,36.2 nM,"CC(=O)N1CC[C@@H](Oc2ccc(NC(=O)C(NCCc3ccc(C#N)cc3)c3ccccc3)nc2)C1 (single isomer, unassigned) [14 Isomer 1]"
16,33.7 nM,"CC(CNC(C(=O)Nc1ccc(Oc2cnn(C)c2)cn1)c1ccccc1)c1ccc(C#N)cc1 (single isomer, unassigned) [17 Isomer 1]"
17,26.7 nM,"CC(CNC(C(=O)Nc1ccc(OC2CCN(C(=O)C3CC3)CC2)cn1)c1ccccc1)c1ccc(C#N)cc1 (single isomer, unassigned) [20 Isomer 2]"
18,26.6 nM,"CN1CCC(Oc2ccc(NC(=O)C(NCCc3ccc(Cl)cc3)c3ccccc3)nc2)CC1 (single isomer, unassigned) [11 Isomer 1]"
